# According to patent US9999614B2, “Combination for the prophylaxis and treatment of behavioural, mental, and cognitive disorders” (LTD “VALENTA-INTELLEKT”, priority 2012, dated 2018):
# Assays:
# [1] = system: amnesia in mice, as caused by scopolamine; assay: CPAR, model of amnesia caused by scopolamine; format: in vivo; conditions: for Latent time of entering into the dark chamber / Number of mice not entered into the dark chamber, % / Number of mice taught to CPAR (%): scopolamine 1 mg/kg i.p., Melatonin 5 mg, Memantin 10 mg mono-use; for Number of mice taught to CPAR (%): agents i.p. once a day for 5 days; for Effect on scopolamine amnesia of the skill (in words): summary of Tables 3-4
# Description: (§1) For this, the active substances Melatonin 3 mg/Memantin 10 mg, Melatonin 5 mg/Memantin 20 mg, Melatonin 10 mg/Memantin 20 mg were taken, and doses recommended for human beings were converted into doses adapted for mice according to the formula “(active substance/70(average weight of a human being))×7”. Then the compositions were dissolved in 5 mL of the solution and, according to the given formula, introduced to animals intraperitoneally once a day for 5 days.
# The CPAR test is the main model for evaluating substance influences on formation and replication of short-time memory in a normal condition and in an abnormal condition, i.e., induced amnesia. The CPAR is the most informative method among the methods that are used today for evaluating efficiency of substances with influence on the CNS of mammals (see, “Manual for Experimental (Pre-Clinical) Studies of New Pharmacological Substances”, 2000). The CPAR (conditioned passive avoidance reflex in a dark, light chamber) was taught to the mice on the basis of electrodermal response according to the method proposed by Cumin et al. (1982) with due regard to the recommendations given by Mondadori et al. (1990). The installation for mice, as produced by Lafayette Instrument Co., USA, was a black chamber with the electrode floor and a white plastic platform that was arranged on the floor in the center of the chamber. The mice, one by one, were put onto the plastic platform. The animals went/jumped down onto the electrode floor where they received an electric current shock, i.e., punishment. Electric current was supplied after the time when an animal stood on the floor with all its four legs. The natural response of the animals is to go back to the current-free or safe platform. […] Tests for memorizing CPAR were conducted in successive time intervals after amnesic action. In a case where an animal went/jumped down onto the platform within 1 minute, it was recorded as having retrograde amnesia of the passive avoidance skill. The compositions were studied in comparison with Melatonin 5 mg (mono-use) and Memantin 10 mg (mono-use), according to the above formula for adapting to animal models.
# The compositions under study were dissolved in 5 mL of the solution and, according to the above formula, introduced to the animals intraperitoneally, once a day for 5 days.
# [2] = system: amnestic effect caused by mice swimming in cold water, simultaneously rotating wheel to the point of exhaustion; assay: CPAR, amnesia induced by swimming in cold water with wheel rotation to the point of exhaustion; format: in vivo; conditions: Melatonin 5 mg, Memantin 10 mg mono-use
# Description: as §1
# The CPAR test is the main model for evaluating substance influences on formation and replication of short-time memory in a normal condition and in an abnormal condition, i.e., induced amnesia. The CPAR is the most informative method among the methods that are used today for evaluating efficiency of substances with influence on the CNS of mammals (see, “Manual for Experimental (Pre-Clinical) Studies of New Pharmacological Substances”, 2000). The CPAR (conditioned passive avoidance reflex in a dark, light chamber) was taught to the mice on the basis of electrodermal response according to the method proposed by Cumin et al. (1982) with due regard to the recommendations given by Mondadori et al. (1990). The installation for mice, as produced by Lafayette Instrument Co., USA, was a black chamber with the electrode floor and a white plastic platform that was arranged on the floor in the center of the chamber. The mice, one by one, were put onto the plastic platform. The animals went/jumped down onto the electrode floor where they received an electric current shock, i.e., punishment. Electric current was supplied after the time when an animal stood on the floor with all its four legs. The natural response of the animals is to go back to the current-free or safe platform. After several minutes of teaching, 5 minutes on the average, mice developed CPAR and remained on the safe platform. Tests for memorizing CPAR were conducted in successive time intervals after amnesic action. In a case where an animal went/jumped down onto the platform within 1 minute, it was recorded as having retrograde amnesia of the passive avoidance skill. The compositions were studied in comparison with Melatonin 5 mg (mono-use) and Memantin 10 mg (mono-use), according to the above formula for adapting to animal models.
# The antiamnestic action of the compositions on the amnesia model induced by swimming of mice in cold water with wheel rotation to the point of exhaustion. Studies were conducted on white non-linear male mice having a weight of 20-24 g with developing CPAR in the animals as in the previous studies. The animals were put, one by one, into a container filled with water and equipped with a rotating wheel. After teaching CPAR, the mice swam in cold water, simultaneously rotating the wheel to the point of exhaustion. The CPAR maintenance was checked in successive time intervals. As false imitation of swimming in cold water, mice were put onto a pad consisting of wet cold wadding. The substances and an isotonic solution of sodium chloride (control) were studied in comparison with Melatonin 5 mg (mono-use) and Memantin 10 mg (mono-use), in accordance with the above formula for adapting to animal models, by intraperitoneal introduction before teaching mice, once a day for 5 days.
# [3] = system: amnesia caused by acute normobaric hypoxic hypoxia with hypercapnia; assay: Open-field method after acute normobaric hypoxic hypoxia with hypercapnia; format: in vivo, mice; conditions: i.p. once a day for 5 days, Melatonin 5 mg, Memantin 10 mg mono-use
# Description: as §1
# The antiamnestic action of the compositions was also carried out on an model of amnesia caused by acute normobaric hypoxic hypoxia with hypercapnia in a so-called hermetic chamber on white non-linear male mice having a weight of 20-24 Γ with the CPAR development in the animals according to the open-field method. After CPAR teaching the animals were put in the hermetic chamber for 16-18 minutes, depending on manifestation of hypoxia symptoms and weight. This model was reproduced by placing mice, one by one, in glass jars of equal volume that were hermetically sealed. With consumption of oxygen its concentration in the jar air and in the organism lowered and the quantity of carbon dioxide, on the contrary, raised. As the result, acute hypoxic hypoxia with hypercapnia developed in the animals. The animals of the control group were subjected to false hypoxia, that is, the mice were put in glass jars of equal volume that were not closed. The substances under study and the sodium chloride isotonic solution (control) were used in comparison with Melatonin 5 mg (mono-use) and Memantin 10 mg (mono-use) in accordance with the above formula for adapting to animal models by intraperitoneal introduction, before teaching the mice, once a day for 5 days.
Compound,Latent time of entering into the dark chamber ([1]; 1 day after teaching),"Number of mice not entered into the dark chamber, % ([1]; 1 day after teaching)",Latent time of entering into the dark chamber ([1]; 3 days after teaching),"Number of mice not entered into the dark chamber, % ([1]; 3 days after teaching)",Latent time of entering into the dark chamber ([1]; 7 days after teaching),"Number of mice not entered into the dark chamber, % ([1]; 7 days after teaching)",Latent time of entering into the dark chamber ([1]; 10 days after teaching),"Number of mice not entered into the dark chamber, % ([1]; 10 days after teaching)",Number of mice taught to CPAR (%) [1],Effect on scopolamine amnesia of the skill (in words) [1],Latent time of entering into the dark chamber ([2]; 1 day after teaching),"Number of mice not entered into the dark chamber, % ([2]; 1 day after teaching)",Latent time of entering into the dark chamber ([2]; 3 days after teaching),"Number of mice not entered into the dark chamber, % ([2]; 3 days after teaching)",Latent time of entering into the dark chamber ([2]; 7 days after teaching),"Number of mice not entered into the dark chamber, % ([2]; 7 days after teaching)",Latent time of entering into the dark chamber ([2]; 10 days after teaching),"Number of mice not entered into the dark chamber, % ([2]; 10 days after teaching)",Horizontal motion activity ([3]; 1st day after operation),Inspection of holes ([3]; 1st day after operation),other results
"COc1ccc2[nH]cc(CCNC(C)=O)c2c1 [Melatonin, N-acetyl-5-methoxytriptamine]",111.3 ± 15.7 s,58.3%,107.4 ± 21.2 s,54.5%,105.8 ± 17.4 s,45.4%,101.2 ± 20.6 s,36.3%,66.7%,"influenced on amnesia of the skill obtained, but insignificantly",109.3 ± 9.8 s,61.5%,105.4 ± 13.5 s,46.1%,104.6 ± 15.1 s,38.5%,100.9 ± 17.4 s,30.7%,6.9 ± 2.3,1.7 ± 0.6,Vertical motion activity ([3]; 1st day after operation): 3.2 ± 1.2; Horizontal motion activity ([3]; 3rd day after operation): 8.2 ± 1.4; Inspection of holes ([3]; 3rd day after operation): 1.9 ± 0.8; Vertical motion activity ([3]; 3rd day after operation): 3.5 ± 0.9; Horizontal motion activity ([3]; 7th day after operation): 8.3 ± 2.8; Inspection of holes ([3]; 7th day after operation): 2.4 ± 0.5; Vertical motion activity ([3]; 7th day after operation): 3.2 ± 1.3; Horizontal motion activity ([3]; 10th day after operation): 8.1 ± 1.7; Inspection of holes ([3]; 10th day after operation): 2.6 ± 2.9; Vertical motion activity ([3]; 10th day after operation): 3.6 ± 2.3
CC12CC3CC(C)(C1)CC(N)(C3)C2 [Memantin],110.8 ± 25.8 s,50%,114.4 ± 18.2 s,60%,111.1 ± 21.2 s,40%,108.6 ± 18.7 s,40%,70%,"influenced on amnesia of the skill obtained, but insignificantly",111.3 ± 22.3 s,41.6%,115.9 ± 16.5 s,50%,117.4 ± 28.1 s,66.6%,118.0 ± 23.3 s,66.6%,7.1 ± 2.7,2.1 ± 1.1,Vertical motion activity ([3]; 1st day after operation): 3.7 ± 1.9; Horizontal motion activity ([3]; 3rd day after operation): 8.9 ± 4.9; Inspection of holes ([3]; 3rd day after operation): 2.5 ± 1.1; Vertical motion activity ([3]; 3rd day after operation): 3.3 ± 1.2; Horizontal motion activity ([3]; 7th day after operation): 9.6 ± 3.4; Inspection of holes ([3]; 7th day after operation): 3.0 ± 2.7; Vertical motion activity ([3]; 7th day after operation): 3.7 ± 1.8; Horizontal motion activity ([3]; 10th day after operation): 11.3 ± 1.7; Inspection of holes ([3]; 10th day after operation): 3.2 ± 1.3; Vertical motion activity ([3]; 10th day after operation): 4.1 ± 2.5
